Data as given in EPA's ToxValDB 9.5.
“And” between values parts separate entries of the source, which are not always exact repeats. Equal entries are not always repeated.

What was measured:
Homo sapiens = conditions: clinical
Rattus norvegicus [1] = conditions: for LOAEL: short-term
Rattus norvegicus [2] = test system: Rattus norvegicus
Rattus norvegicus [3] = conditions: oral
Rattus norvegicus [4] = conditions: oral; remark: listed apart in the source
Canidae [5] = conditions: subchronic; oral; M/F; Dog Other; red blood cell and liver effects
Rattus norvegicus [6] = conditions: oral; remark: listed apart in the source
Rattus norvegicus [7] = conditions: developmental; oral; diet; Fetus: Fetotoxicity
Oryctolagus sp. = conditions: acute, dermal
Rattus norvegicus [8] = conditions: oral; remark: listed apart in the source
Mus musculus [9] = conditions: chronic; oral; gavage; M/F; renal cytomegaly
Canidae [10] = conditions: subchronic; duration: 90 days; oral; capsule / gavage; M/F; Beagle; Protruding nictitating membranes, dilated pupils, eye redness and decreased indirect pupillary light response
Mus musculus [11] = conditions: short-term; duration: 14 days; oral; drinking water; M/F; B6C3F1; hepatic
Rattus norvegicus [12] = conditions: repeat dose other; oral
[13] = developmental, oral, F, reduced delayed hypersensitivity response
[14] = chronic, oral, diet, M/F, kidney toxicity
[15] = short-term, duration: 28 days, gavage, M, Sprague-Dawley, Clinical Observation: Respiratory rate decrease, Incomplete eyelid opening SalivationSpontaneous locomotion decrease + Body Weight Changes: …
[16] = short-term, duration: 28 days, gavage, M, Sprague-Dawley, Clinical Observation: Spontaneous locomotion decrease, Respiratory rate decrease, Salivation + Body Weight Changes: decrease + Food …
[17] = subchronic, duration: 90 days, inhalation, M/F, nasal turbinates
[18] = subchronic, duration: 90 days, diet, Sprague-Dawley

**Q.** Which results are given for [V] [Vanadium]?
**A.** NOAEL (Homo sapiens; duration: 12 weeks, oral, capsule, M/F, hematological): 0.12 mg/kg-day; LOAEL (Rattus norvegicus [1]; duration: 16 days, inhalation, F, Fischer 344, respiratory): 0.56 mg/m3

**Q.** Which LOAEL (Rattus norvegicus [2]; [13]) does the source give for Oc1ccc(Cl)cc1Cl [2,4-Dichlorophenol] here?
**A.** The LOAEL was 3 mg/kg-day.

**Q.** And the NOEL (Rattus norvegicus [2]; [13])?
**A.** The NOEL was 0.3 mg/kg-day.

**Q.** What about the LOAEL (Rattus norvegicus [3]; subchronic, duration: 13 weeks, drinking water, M/F, Sprague-Dawley, Whole Body Effects) of the same molecule?
**A.** Its LOAEL is 3 mg/kg-day.

**Q.** And the NOAEL (Rattus norvegicus [4]; subchronic, duration: 90 days, diet, M/F, Fischer 344, Clinical Observation: Hunched posture Rough hair coats + Body Weight Changes: decrease + Food Consumption: decrease, (palatability decrease…)?
**A.** The NOAEL was 480 mg/kg-day.

**Q.** For C=Cc1ccccc1 [Styrene], which LOAEL (Canidae [5]) is on record?
**A.** Its LOAEL is 400 mg/kg-day.

**Q.** What about the NOAEL (Canidae [5]) of the same molecule?
**A.** Its NOAEL is 200 mg/kg-day.

**Q.** What about the NOEL (Rattus norvegicus [6]; chronic, duration: 2 years, drinking water, M/F, Sprague-Dawley, Decreased bodyweight, females) of the same molecule?
**A.** Its NOEL is 7.7 mg/kg-day and 14 mg/kg-day.

**Q.** And the NOAEL (Homo sapiens; duration: 6 hours, inhalation, M, neurological)?
**A.** The NOAEL was 209 mg/m3.

**Q.** And the LOAEL (Rattus norvegicus [1]; duration: 14 days, oral, gavage, M, Wistar, neurological)?
**A.** Its LOAEL is 100 mg/kg-day.

**Q.** With [Tl] [Thallium] as the molecule, how does the LOAEL (Rattus norvegicus [3]; subchronic, duration: 90 days, gavage, M/F, Sprague-Dawley) read?
**A.** Its LOAEL is 0.04 mg/kg-day.

**Q.** How did the LOAEL (Rattus norvegicus [2]; [14]) turn out when OCCO [Ethylene glycol] was run?
**A.** Its LOAEL is 1000 mg/kg-day.

**Q.** What about the NOEL (Rattus norvegicus [2]; [14]) of the same molecule?
**A.** The NOEL was 200 mg/kg-day.

**Q.** What about the NOEL (Rattus norvegicus [7]) of the same molecule?
**A.** The NOEL was 200 mg/kg-day.

**Q.** And the NOAEL (Homo sapiens; duration: 30 days, inhalation, M, respiratory)?
**A.** The NOAEL was 23 mg/m3.

**Q.** And the NOAEL (Rattus norvegicus [4]; chronic, duration: 16 weeks, diet, M, Wistar, Deaths + Body Weight Changes: Mean body weight decrease + Food Consumption: decrease + Water Consumption: increase + Urinalysis: SG decrease…)?
**A.** Its NOAEL is 150 mg/kg-day.

**Q.** What about the NOAEL (Rattus norvegicus [4]; chronic, duration: 16 weeks, diet, M, Wistar, Water Consumption: increase + Urinalysis: SG decrease, VOL increase + Absolute Organ Weight: Kidney increase + Relative Organ Weight: Kidney…) of the same molecule?
**A.** Its NOAEL is 150 mg/kg-day.

**Q.** CC[C@@]1([C@@H]2O[C@@H]([C@H]3O[C@@](O)(CO)[C@H](C)C[C@@H]3C)C[C@@H]2C)CC[C@H]([C@]2(C)CC[C@]3(C[C@H](O)[C@@H](C)[C@@H]([C@@H](C)[C@@H](OC)[C@H](C)C(=O)O)O3)O2)O1 [Monensin] was tested. Which NOAEL (Rattus norvegicus [6]; chronic, duration: 2 years, diet, M/F, Wistar, Decreased bodyweight gain) did it give?
**A.** The NOAEL was 1.14 mg/kg-day.

**Q.** What does the source list for FC(F)(F)c1ccc(Cl)c(Cl)c1 [1,2-Dichloro-4-(trifluoromethyl)benzene]?
**A.** NOAEL (Rattus norvegicus [3]; short-term, duration: 14 days, gavage, M/F, Albino CD): 60 mg/kg-day; LD50 (Oryctolagus sp.): > 5000 mg/kg; LD50 (Oryctolagus sp.; occlusive): 5000 mg/kg; LD50 (Rattus norvegicus [8]; acute, CF Nelson): 1150 mg/kg; NOAEL (Rattus norvegicus [8]; short-term, duration: 28 days, diet, Sprague-Dawley): 20 ppm

**Q.** Which LOAEL (Mus musculus [9]) does the source give for ClC(Cl)Br [Bromodichloromethane] here?
**A.** The LOAEL was 25 mg/kg-day.

**Q.** What about the NOAEL (Rattus norvegicus [4]; [15]) of the same molecule?
**A.** The NOAEL was 40 mg/kg-day.

**Q.** And the NOEL (Rattus norvegicus [4]; [15])?
**A.** Its NOEL is less than 40 mg/kg-day.

**Q.** And the NOAEL (Rattus norvegicus [4]; [16])?
**A.** Its NOAEL is 40 mg/kg-day.

**Q.** What about the NOEL (Rattus norvegicus [4]; [16]) of the same molecule?
**A.** The NOEL was less than 40 mg/kg-day.

**Q.** And the NOEL (Rattus norvegicus [4]; subchronic, duration: 13 weeks, gavage, M/F, Fischer 344, Deaths + Body Weight Changes: decrease + Histopathology: Liver/centrilobular-Degeneration Liver/bile duct -Hyperplasia Liver-Enlargement, …)?
**A.** The NOEL was 38 mg/kg-day.

**Q.** How did the NOEL (Rattus norvegicus [6]; subchronic, duration: 90 days, diet, M/F, Fischer 344, Nephrotoxicity) turn out when CCCC[C@@H](C)[C@@H](OC(=O)C[C@@H](CC(=O)O)C(=O)O)[C@H](C[C@@H](C)C[C@H](O)CCCC[C@@H](O)C[C@H](O)[C@H](C)N)OC(=O)C[C@@H](CC(=O)O)C(=O)O [Fumonisin B1] was run?
**A.** Its NOEL is 0.2 mg/kg-day.

**Q.** What about the NOEL (Rattus norvegicus [4]; short-term, duration: 28 days, diet, M/F, Fischer 344, Body Weight Changes: decrease + Blood Chemistry: Crn increase, TP increase, Cho increase, TG increase, ALT increase, ALP increase, AST …) of the same molecule?
**A.** Its NOEL is less than 99 ppm.

**Q.** With CN1C(=O)[C@]23C[C@H]4C(C)(C)[C@]5(CNc6c5ccc5c6OC=CC(C)(C)O5)C[C@@]41CN2CC[C@@]3(C)O as the molecule, how does the LOAEL (Canidae [10]) read?
**A.** Its LOAEL is 0.1 mg/kg-day.

**Q.** ClCC1CO1 (stereo not given) [Epichlorohydrin] was tested. Which LOAEL (Rattus norvegicus [2]; [17]) did it give?
**A.** Its LOAEL is 95 mg/m3.

**Q.** And the NOAEL (Rattus norvegicus [2]; [17])?
**A.** Its NOAEL is 19 mg/m3.

**Q.** What about the LOAEL (Rattus norvegicus [3]; reproduction developmental, duration: 23 days, gavage, M, Long-Evans, reproductive) of the same molecule?
**A.** The LOAEL was 6.25 mg/kg-day.

**Q.** For F [Hydrogen fluoride], which LOAEL (Homo sapiens; duration: 1 hours, inhalation, M, respiratory) is on record?
**A.** Its LOAEL is 0.409 mg/m3.

**Q.** O=S=O [Sulfur dioxide] was tested. Which LOAEL (Homo sapiens; duration: 1 days, inhalation, M/F, respiratory) did it give?
**A.** Its LOAEL is 0.262 mg/m3.

**Q.** CC1(C)C(C=C(Cl)c2ccc(Cl)cc2)C1C(=O)OC(C#N)c1ccc(F)c(Oc2ccccc2)c1 (stereo not given) [Flumethrin] was tested. Which NOAEL (Rattus norvegicus [6]; developmental, Reduced pup survival and bodyweight gain. Maternal toxicity: salivation) did it give?
**A.** Its NOAEL is 0.37 mg/kg-day.

**Q.** For Clc1cccc(Cl)c1Cl [1,2,3-Trichlorobenzene], which NOAEL (Rattus norvegicus [3]; subchronic, duration: 13 weeks, diet, M, Sprague-Dawley, Whole Body Effects, Hepatic) is on record?
**A.** The NOAEL was 7.7 mg/kg-day.

**Q.** What about the NOAEL (Rattus norvegicus [8]; developmental, duration: 10 days, gavage, Sprague-Dawley) of the same molecule?
**A.** The NOAEL was 600 mg/kg-day.

**Q.** And the NOAEL (Rattus norvegicus [8]; reproduction developmental, duration: 10 days, gavage, F, Sprague-Dawley)?
**A.** The NOAEL was 150 mg/kg-day.

**Q.** What about the LOAEL (Rattus norvegicus [8]; [18]) of the same molecule?
**A.** Its LOAEL is 96 mg/kg-day.

**Q.** And the NOAEL (Rattus norvegicus [8]; [18])?
**A.** The NOAEL was 9.6 mg/kg-day.

**Q.** How did the NOEL (Rattus norvegicus [6]; reproduction developmental, duration: 2 years, diet, M/F, Sprague-Dawley, no effects) turn out when COC[C@H]1O[C@@H](OC2OC[C@@H]3O[C@]4(O[C@H]3[C@H]2OC(=O)C(C)C)O[C@H](C)[C@@](O)(C(C)=O)[C@@H]2OCO[C@H]24)[C@@H](OC)[C@@H](O)[C@@H]1O[C@@H]1O[C@H](C)[C@H](OC)[C@H](O[C@H]2C[C@@]3(C)OC4(C[C@@H](O)[C@H](O[C@H]5C[C@@H](O)[C@H](OC(=O)c6c(C)c(Cl)c(O)c(Cl)c6OC)[C@@H](C)O5)[C@@H](C)O4)O[C@@H]3[C@@H](C)O2)[C@H]1O (stereo not given in full) [Avilamycin] was run?
**A.** The NOEL was 150 mg/kg-day.

**Q.** Which LOAEL (Rattus norvegicus [2]; chronic, oral, M/F, longevity, blood glucose, and cholesterol) does the source give for [Sb] [Antimony] here?
**A.** The LOAEL was 0.35 mg/kg-day.

**Q.** And the LOAEL (Rattus norvegicus [3]; chronic, duration: 2 years, drinking water, M/F, Long-Evans, Whole Body Effects)?
**A.** Its LOAEL is 0.35 mg/kg-day.

**Q.** What about the NOAEL (Mus musculus [11]) of the same molecule?
**A.** The NOAEL was 99 mg/kg-day.

**Q.** And the NOAEL (Rattus norvegicus [1]; subchronic, duration: 13 weeks, oral, drinking water, M/F, Sprague-Dawley, metabolic)?
**A.** The NOAEL was 0.06 mg/kg-day.

**Q.** [O]=[Cr][O][Cr]=[O] [Chromium(III) oxide] was tested. Which NOAEL (Rattus norvegicus [12]) did it give?
**A.** Its NOAEL is 2740 mg/kg-day.
